Reference: patent US9994673B2, “Bisphenol polyether oligomers, methods of manufacture, and polycarbonates made therefrom” (SABIC GLOBAL TECHNOLOGIES B.V, priority 2013, dated 2018)
“Also recorded” adds a separate entry of the source.

Columns and labels:
[1] = biological target: recombinant human estradiol receptor (rhER) beta 1 (Homo sapiens, UniProt Q92731); experiment: Competitive estradiol binding assay, displacement of [3H]estradiol, rhER beta 1; conditions: up to highest concentration 2.5×E-4 M
[2] = biological target: T1, recombinant human estradiol receptor (rhER) alpha (Homo sapiens, UniProt P03372); experiment: Competitive estradiol binding assay, displacement of [3H]estradiol, rhER alpha; conditions: up to highest concentration 2.5×E-4 M
T1 sequence (P03372 1-595): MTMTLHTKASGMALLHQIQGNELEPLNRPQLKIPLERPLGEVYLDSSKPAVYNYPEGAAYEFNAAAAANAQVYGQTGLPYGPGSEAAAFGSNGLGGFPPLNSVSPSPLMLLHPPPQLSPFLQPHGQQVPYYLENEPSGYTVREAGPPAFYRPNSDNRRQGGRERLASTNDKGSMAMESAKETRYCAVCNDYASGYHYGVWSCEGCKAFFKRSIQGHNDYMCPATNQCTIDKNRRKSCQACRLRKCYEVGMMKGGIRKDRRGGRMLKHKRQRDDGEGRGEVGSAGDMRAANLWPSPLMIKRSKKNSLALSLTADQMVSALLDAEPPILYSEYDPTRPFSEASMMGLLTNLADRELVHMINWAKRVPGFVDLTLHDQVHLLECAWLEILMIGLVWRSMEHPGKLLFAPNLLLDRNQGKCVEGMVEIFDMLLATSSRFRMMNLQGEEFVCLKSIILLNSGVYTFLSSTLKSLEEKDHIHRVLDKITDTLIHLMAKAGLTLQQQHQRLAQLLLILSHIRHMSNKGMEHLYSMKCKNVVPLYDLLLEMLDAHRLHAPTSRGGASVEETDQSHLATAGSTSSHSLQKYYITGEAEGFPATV

Row | Structure (SMILES) | Binding to rhER beta (in words) ([1]; listed as BPA) | Binding to rhER alpha (in words) ([2]; listed as BPA) | Binding to rhER beta (in words) [1] | Binding to rhER alpha (in words) [2]
1 | CC(C)(c1ccc(O)cc1)c1ccc(O)cc1 [Control B, Bisphenol A] | bind to both receptors; also recorded: very low level of binding | bind to both receptors; also recorded: very low level of binding | – | –
2 | CC(C)(c1ccc(O)cc1)c1ccc(OCc2ccc(COc3ccc(C(C)(C)c4ccc(O)cc4)cc3)cc2)cc1 [BPA-X-1, 4,4′-[1,4-Phenylenebis(methyleneoxy-4,1-phenylene(1-methylethylidene))]bisphenol] | – | – | no detectable binding | no detectable binding
3 | CC(C)(c1ccccc1)c1ccc(O)cc1 [Control C, p-Cumyl Phenol] | – | – | very low level of binding | very low level of binding
